Measurements published in US7947275B2 (Signe Biopharma, Inc., priority 2000, dated 2011).
Values joined by “and” are separate entries in the source; they are usually repeats but may differ in a detail not shown here. Equal entries are not always repeated. Structures can show the parent of a compound that is named as a salt. Where two headings read alike, the source gives them in different places.

Key:
H301 cells = experiment: Cell growth assay, H301 kidney tumor cells; conditions: 50% (v/v) CDE-horse serum
Excerpt: (§1) General Cell Culture—Growth Assay Methods.
(§2) General Cell Culture—Harvest and Counting Cells.
(§3) General Cell Culture—Quantification of Growth.

GH4C1 cells = experiment: Cell growth assay, GH4C1 rat pituitary tumor cells; conditions: 50% CDE-horse serum
Excerpt: as §1, §2, §3

MTW9/PL2 cells = experiment: Cell growth assay, MTW9/PL2 rat mammary tumor cells; conditions: for concentration for optimum growth / concentration causing significant (p<0.05) growth: 50% (v/v) CDE-horse serum
Excerpt: as §1, §2, §3

LNCaP cells = experiment: Cell growth assay, LNCaP human prostatic carcinoma cells; assay type: cell-based; conditions: for reversal of the inhibition caused by CDE-horse serum: D-MEM/F-12 with CDE-horse serum, 10 nM steroid
Description: Specific modifications of the customary cell growth assays were required for assays done under iron-restricted conditions. […] Serum-free components were added to “low-Fe” D-MEM/F-12 at double the concentrations needed (2X) or to “standard” D-MEM/F-12 at (2X) as the experiments dictated. Each assay dish received 1.0 mL of this solution. Next, the cells to be used in the assays were washed three times in either “low-Fe” medium or “standard” medium depending upon the experimental protocol.

[1] = test system: MCF-7A, MCF-7K, T47D and ZR-75-1 cells; experiment: Growth factors as substitutes for E2 with human breast cancer cells in CDE-horse serum; assay type: cell-based; conditions: EGF, TGFα growth saturating; IGF-I 1.0 μg/mL; IGF-II up to 500 ng/mL; insulin 10 ng/mL to 10 μg/mL
MCF-7K cells = experiment: Cell growth assay, MCF-7K human breast cancer cells
Excerpt: as §1, §2, §3

[2] = test system: MCF-7A, T47D, ZR-75-1, LNCaP and GH4C1 cells; experiment: TGFβ1 at 50 ng/mL ± E2 with other ER^+ cell lines; assay type: cell-based
T47D cells = experiment: Cell growth assay, T47D human breast cancer cells; conditions: for growth effect of steroid hormone, result in words: 50% (v/v) CDE horse serum, 14 days
Excerpt: as §1, §2, §3

CA-PS-Pool II = experiment: Scatchard analysis of labeled steroid binding to CA-PS-pool II; parameters: species or system horse; conditions: 3H-labeled steroid, 34° C.
[3] = test system: CA-PS-Pool II from rat serum; experiment: Scatchard analysis of labeled steroid binding to the SHBG-like pools from rat serum; conditions: 3H-labeled steroid
human CBG = human CBG (Homo sapiens, UniProt P08185); conditions: 23° C.; cited from earlier work
[4] = test system: cortisol receptors of MTW9/PL2 cells; experiment: ^3H-cortisol binding to MTW9/PL2 cells; conditions: ≦20 nM ^3H-cortisol
[5] = molecular target: T1, CA-PS-Pool I (predominantly CBG) (Equus caballus, UniProt F7DRS2); experiment: Scatchard analysis of labeled steroid binding to CA-PS-pool I; parameters: species or system horse
T1 sequence (F7DRS2 23-406): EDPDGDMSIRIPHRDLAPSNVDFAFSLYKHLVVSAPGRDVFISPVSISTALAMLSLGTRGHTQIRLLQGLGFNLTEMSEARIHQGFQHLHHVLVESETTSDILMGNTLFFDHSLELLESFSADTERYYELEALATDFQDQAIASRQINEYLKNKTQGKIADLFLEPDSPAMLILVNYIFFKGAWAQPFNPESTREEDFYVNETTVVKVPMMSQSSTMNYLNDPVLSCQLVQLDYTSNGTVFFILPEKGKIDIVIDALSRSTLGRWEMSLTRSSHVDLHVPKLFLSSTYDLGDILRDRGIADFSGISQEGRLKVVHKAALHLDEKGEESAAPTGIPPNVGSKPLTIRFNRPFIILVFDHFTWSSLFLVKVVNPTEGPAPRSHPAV

human SHBG = human SHBG (Homo sapiens, UniProt P04278); conditions: 37° C.; cited from earlier work
[6] = read-out: Kd of specific binding of ^3H-DHT
[7] = test system: androgen receptors of MTW9/PL2 cells
[8] = read-out: Kd of specific binding of ^3H-DHT, Scatchard analysis
[9] = test system: progesterone receptors in MTW9/PL2 cells; experiment: ^3H-progesterone binding to MTW9/PL2 cells; parameters: species or system rat; conditions: 37° C.
[10] = molecular target: progesterone receptors in MTW9/PL2 cells (Rattus norvegicus, UniProt Q63449); experiment: ^3H-progesterone binding to MTW9/PL2 cells
DU145 cells = experiment: Cell growth assay, DU145 human prostate cancer cells; conditions: CAPM, 10 μM Fe (III)
Excerpt: as §1, §2, §3

PC3 cells = experiment: Cell growth assay, PC3 human prostate cancer cells; conditions: CAPM, 10 μM Fe (III)
Excerpt: as §1, §2, §3

MCF-7A cells = experiment: Cell growth assay, MCF-7A human breast cancer cells; conditions: DDM-2MF with 10 μg/mL apotransferrin in place of deferoxamine
Excerpt: as §1, §2, §3

ALVA-41 cells = experiment: Cell growth assay, ALVA-41 human prostate cancer cells; conditions: results not shown
[11] = molecular target: T2, estrogen receptors of MTW9/PL2 cells (Rattus norvegicus, UniProt P06211); experiment: ^3H-E2 binding to MTW9/PL2 cells; conditions: 5 nM ^3H-E2, 37° C., 100-fold molar excess of unlabeled steroid
T2 construct: endogenous in cells; host or cells: MTW9/PL2 rat mammary tumor cells (whole cells; some values from extracts of the parental MTW9/PL line)

[12] = read-out: CA-PS-Pool I Kd; 3H-labeled steroid, 34° C.

Chain of progesterone receptors in MTW9/PL2 cells (Rattus norvegicus, UniProt Q63449) (Q63449 669-923 limits assumed): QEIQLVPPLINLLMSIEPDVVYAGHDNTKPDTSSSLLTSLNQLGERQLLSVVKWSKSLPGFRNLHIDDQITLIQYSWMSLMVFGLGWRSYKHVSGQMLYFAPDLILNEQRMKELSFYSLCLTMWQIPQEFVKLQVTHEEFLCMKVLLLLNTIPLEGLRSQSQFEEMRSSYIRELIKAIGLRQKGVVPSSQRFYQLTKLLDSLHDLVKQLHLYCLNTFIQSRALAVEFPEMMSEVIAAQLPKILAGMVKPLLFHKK
Chain of human SHBG (P04278 30-402): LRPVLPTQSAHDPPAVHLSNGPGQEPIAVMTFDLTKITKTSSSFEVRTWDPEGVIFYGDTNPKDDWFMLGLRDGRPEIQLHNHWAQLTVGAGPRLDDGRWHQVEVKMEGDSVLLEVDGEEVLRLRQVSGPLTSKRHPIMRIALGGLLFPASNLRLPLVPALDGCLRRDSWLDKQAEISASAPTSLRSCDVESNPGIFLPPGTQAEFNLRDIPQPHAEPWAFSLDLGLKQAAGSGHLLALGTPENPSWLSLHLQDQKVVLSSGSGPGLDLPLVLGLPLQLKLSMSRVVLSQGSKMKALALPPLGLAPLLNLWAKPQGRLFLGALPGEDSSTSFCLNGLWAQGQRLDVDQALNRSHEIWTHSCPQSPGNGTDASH
T2 sequence (P06211 whole entry): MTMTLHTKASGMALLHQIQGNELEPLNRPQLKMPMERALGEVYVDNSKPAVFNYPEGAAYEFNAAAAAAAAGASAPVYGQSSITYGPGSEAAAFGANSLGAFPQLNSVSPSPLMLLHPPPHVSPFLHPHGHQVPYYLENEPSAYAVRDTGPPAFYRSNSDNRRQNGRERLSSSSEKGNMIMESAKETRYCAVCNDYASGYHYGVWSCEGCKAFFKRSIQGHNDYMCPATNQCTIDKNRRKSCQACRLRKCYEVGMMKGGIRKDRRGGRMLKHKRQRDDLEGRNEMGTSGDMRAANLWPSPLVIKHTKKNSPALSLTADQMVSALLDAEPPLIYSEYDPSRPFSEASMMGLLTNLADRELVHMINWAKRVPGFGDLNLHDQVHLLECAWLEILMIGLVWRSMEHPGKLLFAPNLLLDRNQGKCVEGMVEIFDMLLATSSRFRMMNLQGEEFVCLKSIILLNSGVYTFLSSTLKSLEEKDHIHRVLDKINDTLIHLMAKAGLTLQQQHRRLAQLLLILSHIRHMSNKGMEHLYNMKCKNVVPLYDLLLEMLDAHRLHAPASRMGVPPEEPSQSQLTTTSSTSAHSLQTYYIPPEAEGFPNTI
Chain of human CBG (P08185 23-405): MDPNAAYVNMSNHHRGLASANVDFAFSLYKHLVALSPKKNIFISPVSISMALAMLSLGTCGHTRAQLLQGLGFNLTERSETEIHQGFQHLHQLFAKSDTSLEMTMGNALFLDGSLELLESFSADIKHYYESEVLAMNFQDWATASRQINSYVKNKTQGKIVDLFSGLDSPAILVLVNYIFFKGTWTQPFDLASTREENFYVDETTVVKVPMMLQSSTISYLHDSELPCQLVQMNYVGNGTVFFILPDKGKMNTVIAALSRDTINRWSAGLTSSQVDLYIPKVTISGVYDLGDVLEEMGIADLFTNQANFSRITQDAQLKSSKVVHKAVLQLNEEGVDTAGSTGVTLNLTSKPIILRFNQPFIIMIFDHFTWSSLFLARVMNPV

C[C@]12CC[C@@H]3c4ccc(O)cc4CC[C@H]3[C@@H]1CCC2=O [E1, Estrone]
concentration required to achieve significant (p<0.05) growth (H301 cells): 100 pM
concentration required for optimum growth (GH4C1 cells): 10 nM
lowest concentration that gave significant (p<0.05) growth (GH4C1 cells): 1 pM
concentration for optimum growth (MTW9/PL2 cells): 1 nM

CC(=O)N(O)CCCCCNC(=O)CCC(=O)N(O)CCCCCNC(=O)CCC(=O)N(O)CCCCCN [deferoxamine, deferoxamine mesylate]
growth induced by chelator (LNCaP cells; CAPM without deferoxamine plus […] Fe (III), 0.5 μM chelator): 3.5 CPD

insulin: bovine insulin
reversal of the CDE-serum inhibition (substitute for E2) [1]: did not reverse the inhibition caused by 50% (v/v) CDE serum

TGFβ1: transforming growth factor β1
estrogen reversal of the inhibition (MCF-7K cells; […] (v/v) CDE-horse serum ± E2): no TGFβ1 related estrogenic effect
cell numbers per dish with TGFβ1 (350,000 without) (MCF-7K cells; […] (v/v) CDE-horse serum, 50 ng/mL): 200,000 per dish
substitution for the estrogen reversible inhibitor [2]: did not substitute for the estrogen reversible inhibitor(s) in CDE serum
cell numbers per dish with TGFβ1 (350,000 without) (MTW9/PL2 cells; D-MEM/F-12 with […] (v/v) CDE-horse serum): 100,000 per dish
decrease in growth rate (MTW9/PL2 cells; […] (v/v) CDE-horse serum): ≤ 25%
inhibition of growth (MTW9/PL2 cells; […] (v/v) CDE-horse serum): 1.5 CPD
estrogen reversal of the inhibition (MTW9/PL2 cells; […] (v/v) CDE-horse serum ± E2): no estrogen reversal of the TGFβ1 inhibition

CC/C(=C(\c1ccccc1)c1ccc(OCCN(C)C)cc1)c1ccccc1 [tamoxifen, Tamoxifen Citrate]
estrogen reversal of the tamoxifen inhibition (T47D cells; 1.0×10^−7 M tamoxifen, serum-free defined medium): estrogens completely reverse the effect
cytotoxicity (T47D cells; concentrations above 1.0×10^−7 M, serum-free DDM-2MF): Higher concentrations were cytotoxic
concentration that completely inhibited (arrested) growth (T47D cells; serum-free DDM-2MF without any source of estrogens): 100 nM

C[C@]12CCC(=O)C=C1CC[C@@H]1[C@@H]2[C@@H](O)C[C@@]2(C)[C@H]1CC[C@]2(O)C(=O)CO [cortisol, Hydrocortisone/Cortisol]
growth effect of steroid hormone, result in words (T47D cells): completely ineffective
growth effect of steroid hormone, result in words (H301 cells): inactive
CA-PS-Pool II Ka (CA-PS-Pool II): 530000 M⁻¹
Kd (CA-PS-Pool II): 1890 nM
CA-PS-Pool II Ka [3]: 180000 M⁻¹
Kd [3]: 5700 nM
Ka for human CBG (human CBG): 5.2e+07 M⁻¹
specific saturable receptors for cortisol [4]: did not identify specific saturable receptors
growth effect of steroid hormone, result in words (GH4C1 cells): had no effect on GH4C1 growth
concentration causing significant (p<0.05) growth (MTW9/PL2 cells): > 10000 nM
CA-PS-Pool I Ka ([5]; 3H-labeled steroid, 34° C.): 1.41e+09 M⁻¹
CA-PS-Pool I Ka ([5]; 3H-labeled steroid, 34° C.; listed as Cortisol): 1.41e+09 M⁻¹
Kd ([5]; 3H-labeled steroid, 34° C.; read-out: CA-PS-Pool I Kd): 0.71 nM

C[C@]12CCC(=O)C[C@@H]1CC[C@@H]1[C@@H]2CC[C@]2(C)[C@@H](O)CC[C@@H]12 [DHT, Dihydrotestosterone]
growth effect of steroid hormone, result in words (T47D cells): promoted growth but only at supraphysiological concentrations
Ka of purified human SHBG (human SHBG): 9.9e+08 M⁻¹
growth effect of steroid hormone, result in words (H301 cells): inactive
Kd [6]: 15 to 40 nM
CA-PS-Pool II Ka (CA-PS-Pool II): 6.99e+07 M⁻¹
Kd (CA-PS-Pool II): 14.3 nM
CA-PS-Pool II Ka (CA-PS-Pool II; listed as 3H-DHT): 5.88e+07 M⁻¹
specific saturable binding sites for androgens [7]: did not reveal saturable specific binding sites
CA-PS-Pool II Ka [3]: 4.1e+07 M⁻¹
Kd [3]: 24 nM
concentration causing significant (p<0.05) growth (LNCaP cells; D-MEM/F-12 with 50% (v/v) CDE horse serum): 1 pM
reversal of the inhibition caused by CDE-horse serum (LNCaP cells): effectively reversed the inhibition
androgenic effect (difference between presence and absence of DHT) (LNCaP cells; serum-free CAPM ± 10 nM DHT): less than one
concentration causing significant (p<0.05) growth (MTW9/PL2 cells): ≥ 10 nM
Kd [8]: 1 to 5 nM
CA-PS-Pool I Ka ([5]; 3H-labeled steroid, 34° C.): 164000 M⁻¹
Kd [5, 12]: 6050 nM

TGFα: transforming growth factor α, EGF analogue
reversal of the CDE-serum inhibition (substitute for E2) [1]: did not reverse the effects of the serum-borne inhibitor

CC/C(=C(/CC)c1ccc(O)cc1)c1ccc(O)cc1 [DES, Diethylstilbestrol]
reversal of the inhibition caused by CDE-horse serum (LNCaP cells): entirely ineffective

CC(=O)[C@H]1CC[C@H]2[C@@H]3CCC4=CC(=O)CC[C@]4(C)[C@H]3CC[C@]12C [progesterone, Progesterone]
growth effect of steroid hormone, result in words (T47D cells): completely ineffective
growth effect of steroid hormone, result in words (H301 cells): inactive
CA-PS-Pool II Ka (CA-PS-Pool II): 117000 M⁻¹
Kd (CA-PS-Pool II): 7890 nM
CA-PS-Pool II Ka [3]: 140000 M⁻¹
Kd [3]: 6900 nM
^3H-progesterone concentration at one-half saturation [9]: 0.5 to 1 nM
labeled progesterone concentration saturating specific binding [9]: ≥ 5 nM
Kd ([9]; read-out: Kd of ^3H-progesterone binding, Scatchard analysis, whole cells): 1.02 nM
Kd [10]: 3.29 nM
growth effect of steroid hormone, result in words (GH4C1 cells): had no effect on GH4C1 growth
concentration causing significant (p<0.05) growth (MTW9/PL2 cells): ≥ 100 nM
CA-PS-Pool I Ka ([5]; 3H-labeled steroid, 34° C.): 5.9e+08 M⁻¹
Kd [5, 12]: 1.7 nM

EGF: epidermal growth factor from mouse submaxillary gland (NSYPGCPSSYDGYCLNGGVCMHIESLDSYTCNCVIGYSGDRCQTRDLRWWELR; not fully specified; Epidermal growth factor; UniProt P01132 977-1029, looked up)
reversal of the CDE-serum inhibition (substitute for E2) [1]: did not reverse the effects of the serum-borne inhibitor

C[C@]12CC[C@@H]3c4ccc(O)cc4CC[C@H]3[C@@H]1C[C@@H](O)[C@@H]2O [E3, Estriol]
growth effect of steroid hormone, result in words (GH4C1 cells): substantially less effective
concentration for optimum growth (MTW9/PL2 cells): 10 nM

[Fe+3] [Fe (III)]
concentration giving complete inhibition (T47D cells; DDM-2MF with 10 μg/mL apotransferrin instead of deferoxamine, 10 days, ± E2): 2 µM
IC50 (T47D cells; read-out: EI50, DDM-2MF with 10 μg/mL apotransferrin instead of deferoxamine, 10 days): 1000 nM
reduction in cell number (DU145 cells): 30%
reduction in cell number (PC3 cells): 10%
concentration completely inhibitory (MCF-7A cells; ± E2, 10 days): 10 µM
IC50 (MCF-7A cells; read-out: EI50, 10 days): 5000 to 7000 nM
IC50 (LNCaP cells; CAPM with apotransferrin (500 nM) substituted for deferoxamine, 12-day assay, read-out: EI50 (the source's name)): 5000 nM
concentration arresting growth to seed density levels (LNCaP cells; CAPM with apotransferrin (500 nM) substituted for deferoxamine, 12-day assay, second experiment in CAPM): 10 µM and 8 to 10 µM
iron sensitivity of growth (ALVA-41 cells): not iron sensitive

IGF-I: insulin-like growth factor I
reversal of the CDE-serum inhibition (substitute for E2) [1]: did not reverse the serum inhibition

IGF-II: insulin-like growth factor II
reversal of the CDE-serum inhibition (substitute for E2) [1]: did not reverse the inhibitory effects of 10 to 50% (v/v) CDE serum

C[C@]12CC[C@H]3[C@@H](CCC4=CC(=O)CC[C@@]43C)[C@@H]1CC[C@@H]2O [T, Testosterone]
growth effect of steroid hormone, result in words (T47D cells): promoted growth but only at supraphysiological concentrations
growth effect of steroid hormone, result in words (H301 cells): inactive
growth effect of steroid hormone, result in words (GH4C1 cells): ineffective
reduction of ^3H-E2 total binding by unlabeled steroid [11]: did not displace ^3H-E2 total binding significantly
